Experimental data taken from ChEMBL document CHEMBL5385886, “Design, synthesis and evaluation of nitric oxide releasing derivatives of 2,4-diaminopyrimidine as novel FAK inhibitors for intervention of metastatic triple-negative breast cancer” (Eur J Med Chem, 2023).
Activity calls are given as the source filed them. No cut-off for these calls is given here.

Tests used:
MDA-MB-453 = experiment: Antiproliferative activity against human MDA-MB-453 cells assessed as inhibition of cell proliferation incubated for 72 hrs by MTT assay; format: functional, cell-based; conditions: MDA-MB-453, 72 h
Focal adhesion kinase 1 = Focal adhesion kinase 1 (Homo sapiens, UniProt Q05397); experiment: Inhibition of FAK (unknown origin)
MDA-MB-231 [1] = experiment: Antiproliferative activity against human MDA-MB-231 cells assessed as inhibition of cell proliferation incubated for 72 hrs by MTT assay; format: functional, cell-based; conditions: MDA-MB-231, 72 h
MDA-MB-231 [2] = experiment: Antiproliferative activity against human MDA-MB-231 cells assessed as inhibition of cell proliferation at 5 uM incubated for 72 hrs by MTT assay relative to control; format: functional
MDA-MB-157 = experiment: Antiproliferative activity against human MDA-MB-157 cells assessed as inhibition of cell proliferation incubated for 72 hrs by MTT assay; format: functional, cell-based; conditions: MDA-MB-157, 72 h
MDA-MB-231 [3] = experiment: Induction of NO production in human MDA-MB-231 cells at 4 uM incubated for 72 hrs by DAF-FM-DA dye based flow cytometry analysis; format: functional, cell-based
MDA-MB-231 [4] = experiment: Antiproliferative activity against human MDA-MB-231 cells assessed as inhibition of cell proliferation incubated for 72 hrs in presence of 2-(4-((5-chloro-4-((2-(methylcarbamoyl)phenyl)amino)pyrimidin-2-yl)amino)phenyl)acetic acid by MTT assay; format: functional, cell-based; conditions: MDA-MB-231, 72 h
MDA-MB-231 [5] = experiment: Antiproliferative activity against human MDA-MB-231 cells assessed as inhibition of cell proliferation incubated for 72 hrs in presence of 4-((8-hydroxyoctyl)oxy)-3-(phenylsulfonyl)-1,2,5-oxadiazole 2-oxide by MTT assay; format: functional, cell-based; conditions: MDA-MB-231, 72 h

Sequence of Focal adhesion kinase 1 (Q05397 whole entry): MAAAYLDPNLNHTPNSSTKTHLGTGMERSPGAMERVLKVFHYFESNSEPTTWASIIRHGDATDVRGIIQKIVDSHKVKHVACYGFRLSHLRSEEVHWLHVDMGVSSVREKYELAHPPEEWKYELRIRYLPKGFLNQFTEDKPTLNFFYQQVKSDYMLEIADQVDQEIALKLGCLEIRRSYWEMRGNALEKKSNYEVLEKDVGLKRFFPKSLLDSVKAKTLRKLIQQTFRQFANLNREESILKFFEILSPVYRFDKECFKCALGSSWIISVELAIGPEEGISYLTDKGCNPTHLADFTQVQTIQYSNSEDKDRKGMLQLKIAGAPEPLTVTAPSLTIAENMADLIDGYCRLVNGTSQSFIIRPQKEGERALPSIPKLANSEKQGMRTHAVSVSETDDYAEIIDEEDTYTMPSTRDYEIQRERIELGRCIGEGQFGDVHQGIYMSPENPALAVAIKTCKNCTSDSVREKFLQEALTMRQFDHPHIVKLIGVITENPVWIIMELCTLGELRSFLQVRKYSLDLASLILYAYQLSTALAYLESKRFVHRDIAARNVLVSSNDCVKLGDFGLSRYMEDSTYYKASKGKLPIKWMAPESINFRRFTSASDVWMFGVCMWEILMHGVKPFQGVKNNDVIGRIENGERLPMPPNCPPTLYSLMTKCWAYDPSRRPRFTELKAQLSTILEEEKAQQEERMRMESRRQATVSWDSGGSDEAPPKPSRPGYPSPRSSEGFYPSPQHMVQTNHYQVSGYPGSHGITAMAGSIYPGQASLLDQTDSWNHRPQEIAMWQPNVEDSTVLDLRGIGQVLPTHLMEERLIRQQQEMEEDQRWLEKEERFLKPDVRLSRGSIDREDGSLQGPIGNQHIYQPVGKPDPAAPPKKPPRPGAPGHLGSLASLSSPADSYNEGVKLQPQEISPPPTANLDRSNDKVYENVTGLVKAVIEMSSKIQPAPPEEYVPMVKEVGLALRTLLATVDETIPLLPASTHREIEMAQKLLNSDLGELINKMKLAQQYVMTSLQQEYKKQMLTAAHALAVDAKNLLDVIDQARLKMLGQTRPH

Row | SMILES | IC50 (MDA-MB-453) [nM] | IC50 (Focal adhesion kinase 1) [nM] | IC50 (MDA-MB-231 [1]) [nM] | inhibition at 5 µM (MDA-MB-231 [2]) [%] | IC50 (MDA-MB-157) [nM] | Activity (MDA-MB-231 [3]) | IC50 (MDA-MB-231 [4]) [nM] | IC50 (MDA-MB-231 [5]) [nM]
1 | CNC(=O)c1ccccc1Nc1nc(Nc2ccc(CC(=O)OCC(C)COc3no[n+]([O-])c3S(=O)(=O)c3ccccc3)cc2)ncc1Cl (stereo unspecified) | 255 | 66 | 225 | > 92 | 275 | Active | – | –
2 | O=S(=O)(c1ccccc1)c1c(OCCCCCCCCO)no[n+]1[O-] | – | – | 1500 | – | – | – | 1220 | –
3 | CNC(=O)c1ccccc1Nc1nc(Nc2ccc(CC(=O)OCCCCCOc3no[n+]([O-])c3S(=O)(=O)c3ccccc3)cc2)ncc1Cl | 221 | 107 | 130 | > 92 | 235 | Active | – | –
4 | CNC(=O)c1ccccc1Nc1nc(Nc2ccc(CC(=O)O)cc2)ncc1Cl | – | – | 1950 | – | – | – | – | 1220
